Reference: publication PMC5789847, “Bismuth antimicrobial drugs serve as broad-spectrum metallo-β-lactamase inhibitors” (Nature Communications, 2018)

Legend:
NDM-HK (NDM-1^+) = assay: microbe, parasite or virus in culture; type: cell-based, E. coli; settings: for MBC of Bi(III) compound/inhibitor alone / MBC of MER in combination with compound at 32 µg mL^-1 / MIC of Bi(III) compound/inhibitor alone / MIC of MER in combination with compound at 32 µg mL^-1 / FICI: NDM-HK; for FICI: MER + compound, 256 µg mL^-1 set as MIC of Bi(III), 128 for Bi(NAC)3
Method: (§1) MIC values were determined by standard broth micro-dilution method (Clinical and Laboratory Standards Institute (CLSI) M100-S20, 2010)[64]. Briefly, bacterial cells were cultured in LB broth overnight at 37 °C at 250 rpm and the OD was measured at 600 nm (OD600). The bacterial density was adjusted to about 1 × 10^6 CFU mL^−1 and checked by CFU counting on agar plates afterwards. Tested antibiotics or Bi(III) compounds were added triplicately into individual wells of flat-bottomed 96-well plates and performed 2-fold serial dilution, followed by addition of prepared bacterial inocula. The plate was then incubated at 37 °C for overnight. […] The MIC was determined as the lowest concentration of a drug that could inhibit the growth of microorganism by both visual reading and OD reading at 600 nm using a microtiter plate reader.
(§2) Resulting growth (or lack of growth) was examined after overnight culturing and the lowest concentration that inhibits 99.9% of the original culture was taken as MBC.
(§3) Other procedures were kept strictly the same. […] Synergism was defined when FICI ≤ 0.5, indifference was defined when FICI > 0.5 and < 4, and antagonism was defined when FICI≥4[65]. […] All of the determinations were performed at least in triplicate on different days.

VIM-BL21 (VIM-2^+) = assay: microbe, parasite or virus in culture; type: cell-based, E. coli; settings: VIM-BL21
Method: as §1, §2, §3

Compound	MBC of Bi(III) compound/inhibitor alone (NDM-HK (NDM-1^+)) [µg/mL]	MBC of MER in combination with compound at 32 µg mL^-1 (NDM-HK (NDM-1^+)) [µg/mL]	MIC of Bi(III) compound/inhibitor alone (NDM-HK (NDM-1^+)) [µg/mL]	MIC of MER in combination with compound at 32 µg mL^-1 (NDM-HK (NDM-1^+)) [µg/mL]	FICI (NDM-HK (NDM-1^+))	MBC of Bi(III) compound alone (VIM-BL21 (VIM-2^+)) [µg/mL]	MBC of MER in combination with compound at 32 µg mL^-1 (VIM-BL21 (VIM-2^+)) [µg/mL]	MIC of Bi(III) compound alone (VIM-BL21 (VIM-2^+)) [µg/mL]	MIC of MER in combination with compound at 32 µg mL^-1 (VIM-BL21 (VIM-2^+)) [µg/mL]	FICI (VIM-BL21 (VIM-2^+); MER + compound, 256 µg mL^-1 set as MIC of Bi(III))	MBC (NDM-HK (NDM-1^+); Escherichia coli, read-out: MBC of Bi(III) compound/inhibitor alone) [µg/mL]	MIC (NDM-HK (NDM-1^+); Escherichia coli, read-out: MIC of Bi(III) compound/inhibitor alone) [µg/mL]
C[C@H](C[S][Bi+][S]C[C@@H](C)C(=O)N1CCC[C@H]1C(=O)[O-])C(=O)N1CCC[C@H]1C(=O)[O-] [Bi(CPL)2]	> 256	0.5	> 256	0.5	0.125	> 256	1	> 256	0.5	0.078	–	–
O=C([O-])CN(CCN(CC(=O)[O-])CC(=O)O)CC(=O)[O-].[Bi+3] [Bi(EDTA)]	> 256	0.5	> 256	0.5	0.094	–	–	–	–	–	–	–
NC(CCC(=O)NC(C[S][Bi]([S]CC(NC(=O)CCC(N)C(=O)O)C(=O)NCC(=O)O)[S]CC(NC(=O)CCC(N)C(=O)O)C(=O)NCC(=O)O)C(=O)NCC(=O)O)C(=O)O (stereo not shown) [Bi(GSH)3]	> 256	4	> 256	2	0.250	–	–	–	–	–	–	–
C[C@H](CS)C(=O)N1CCC[C@@H]1C(=O)O [CPL, D-captopril]	–	16	–	16	2.000	–	–	–	–	–	> 256	> 256
O=C(O)CN(CCN(CC(=O)O)CC(=O)O)CC(=O)O [EDTA, ethylenediaminetetraacetate]	> 256	0.5	> 256	0.5	0.031	–	–	–	–	–	–	–
CC(=O)N[C@@H](CS)C(=O)O [NAC, N-acetyl-cysteine]	> 256	8	> 256	8	0.750	–	–	–	–	–	–	–
CNC(=C[N+](=O)[O-])NCCSCc1ccc(CN(C)C)o1.O=C([O-])CC(O)(CC(=O)[O-])C(=O)[O-].[Bi+3] [RBC, ranitidine bismuth citrate]	> 256	4	> 256	2	0.250	–	–	–	–	–	–	–
